Laboratory results from article PMC7318359, “Stapled Peptides as HIF‐1α/p300 Inhibitors: Helicity Enhancement in the Bound State Increases Inhibitory Potency” (Chemistry (Weinheim an Der Bergstrasse, Germany), 2020).
Bridge positions count the residues as written; N and C are the ends. Ends that are not written are not given here. Peptide text beside a SMILES is read from it.

Assays:
HIF‐1α/p300 interaction = HIF‐1α/p300 interaction (Homo sapiens, UniProt Q09472); test: Fluorescence anisotropy competition assay (displacement of FITC‐Ahx‐HIF‐1α786–826 tracer from p300); type: binding; conditions: p300 (100 nM); for IC50: FA competition, FITC‐Ahx‐HIF‐1α786–826 tracer, 20 mM Tris, 100 mM NaCl 0.1 mM DTT, pH 7.46, read after 45 minutes at room temperature, triplicate
Description: Fluorescence anisotropy assays were performed in 384‐well plates (Greiner Bio‐one). Each experiment was run in triplicate and the fluorescence anisotropy measured using a Perkin–Elmer EnVisionTM 2103 MultiLabel plate reader, with excitation at 480 nm (30 nm bandwidth), polarised dichroic mirror at 505 nm and emission at 535 nm (40 nm bandwidth, S and P polarised). All assays were performed in 20 mM Tris, 100 mM NaCl 0.1 mM DTT, pH 7.46 unless otherwise stated and data analysed following previously published methods.
Where I is the total intensity, G is an instrument factor which was set to 1 for all experiments and r is the anisotropy. The average anisotropy (across three experimental replicates) and the standard deviation of these values were then calculated and fit to a sigmoidal logistic model [Eq. (3)] using OriginPro 9.0 which provided the IC50 and error values: y = r max + (r min−r max)/(1+(x/xo) p).
FA competition assays were performed in 384 well plates with the concentration of peptide competitor typically starting from 850 μM, diluted over 16 points in 1/2 regime with fixed protein and tracer concentrations. […] For control wells, the tracer peptide was replaced with an identical volume of assay buffer. The total volume in each well was 60 μL. Plates were read after 45 minutes of incubation at room temperature.

p300 = p300 (UniProt Q09472 1-2414); test: fluorescence polarisation; fluorescence anisotropy competition; peptide competitor diluted from about 850 μM over 16 points against fixed p300 (100 nM) and FITC tracer (25 nM in the legend, 50 nM in the methods); 20 mM Tris, 100 mM NaCl, 0.1 mM DTT, pH 7.46; 45 minutes at room temperature; conditions: both partners purified
p300, sequence (Q09472 whole entry): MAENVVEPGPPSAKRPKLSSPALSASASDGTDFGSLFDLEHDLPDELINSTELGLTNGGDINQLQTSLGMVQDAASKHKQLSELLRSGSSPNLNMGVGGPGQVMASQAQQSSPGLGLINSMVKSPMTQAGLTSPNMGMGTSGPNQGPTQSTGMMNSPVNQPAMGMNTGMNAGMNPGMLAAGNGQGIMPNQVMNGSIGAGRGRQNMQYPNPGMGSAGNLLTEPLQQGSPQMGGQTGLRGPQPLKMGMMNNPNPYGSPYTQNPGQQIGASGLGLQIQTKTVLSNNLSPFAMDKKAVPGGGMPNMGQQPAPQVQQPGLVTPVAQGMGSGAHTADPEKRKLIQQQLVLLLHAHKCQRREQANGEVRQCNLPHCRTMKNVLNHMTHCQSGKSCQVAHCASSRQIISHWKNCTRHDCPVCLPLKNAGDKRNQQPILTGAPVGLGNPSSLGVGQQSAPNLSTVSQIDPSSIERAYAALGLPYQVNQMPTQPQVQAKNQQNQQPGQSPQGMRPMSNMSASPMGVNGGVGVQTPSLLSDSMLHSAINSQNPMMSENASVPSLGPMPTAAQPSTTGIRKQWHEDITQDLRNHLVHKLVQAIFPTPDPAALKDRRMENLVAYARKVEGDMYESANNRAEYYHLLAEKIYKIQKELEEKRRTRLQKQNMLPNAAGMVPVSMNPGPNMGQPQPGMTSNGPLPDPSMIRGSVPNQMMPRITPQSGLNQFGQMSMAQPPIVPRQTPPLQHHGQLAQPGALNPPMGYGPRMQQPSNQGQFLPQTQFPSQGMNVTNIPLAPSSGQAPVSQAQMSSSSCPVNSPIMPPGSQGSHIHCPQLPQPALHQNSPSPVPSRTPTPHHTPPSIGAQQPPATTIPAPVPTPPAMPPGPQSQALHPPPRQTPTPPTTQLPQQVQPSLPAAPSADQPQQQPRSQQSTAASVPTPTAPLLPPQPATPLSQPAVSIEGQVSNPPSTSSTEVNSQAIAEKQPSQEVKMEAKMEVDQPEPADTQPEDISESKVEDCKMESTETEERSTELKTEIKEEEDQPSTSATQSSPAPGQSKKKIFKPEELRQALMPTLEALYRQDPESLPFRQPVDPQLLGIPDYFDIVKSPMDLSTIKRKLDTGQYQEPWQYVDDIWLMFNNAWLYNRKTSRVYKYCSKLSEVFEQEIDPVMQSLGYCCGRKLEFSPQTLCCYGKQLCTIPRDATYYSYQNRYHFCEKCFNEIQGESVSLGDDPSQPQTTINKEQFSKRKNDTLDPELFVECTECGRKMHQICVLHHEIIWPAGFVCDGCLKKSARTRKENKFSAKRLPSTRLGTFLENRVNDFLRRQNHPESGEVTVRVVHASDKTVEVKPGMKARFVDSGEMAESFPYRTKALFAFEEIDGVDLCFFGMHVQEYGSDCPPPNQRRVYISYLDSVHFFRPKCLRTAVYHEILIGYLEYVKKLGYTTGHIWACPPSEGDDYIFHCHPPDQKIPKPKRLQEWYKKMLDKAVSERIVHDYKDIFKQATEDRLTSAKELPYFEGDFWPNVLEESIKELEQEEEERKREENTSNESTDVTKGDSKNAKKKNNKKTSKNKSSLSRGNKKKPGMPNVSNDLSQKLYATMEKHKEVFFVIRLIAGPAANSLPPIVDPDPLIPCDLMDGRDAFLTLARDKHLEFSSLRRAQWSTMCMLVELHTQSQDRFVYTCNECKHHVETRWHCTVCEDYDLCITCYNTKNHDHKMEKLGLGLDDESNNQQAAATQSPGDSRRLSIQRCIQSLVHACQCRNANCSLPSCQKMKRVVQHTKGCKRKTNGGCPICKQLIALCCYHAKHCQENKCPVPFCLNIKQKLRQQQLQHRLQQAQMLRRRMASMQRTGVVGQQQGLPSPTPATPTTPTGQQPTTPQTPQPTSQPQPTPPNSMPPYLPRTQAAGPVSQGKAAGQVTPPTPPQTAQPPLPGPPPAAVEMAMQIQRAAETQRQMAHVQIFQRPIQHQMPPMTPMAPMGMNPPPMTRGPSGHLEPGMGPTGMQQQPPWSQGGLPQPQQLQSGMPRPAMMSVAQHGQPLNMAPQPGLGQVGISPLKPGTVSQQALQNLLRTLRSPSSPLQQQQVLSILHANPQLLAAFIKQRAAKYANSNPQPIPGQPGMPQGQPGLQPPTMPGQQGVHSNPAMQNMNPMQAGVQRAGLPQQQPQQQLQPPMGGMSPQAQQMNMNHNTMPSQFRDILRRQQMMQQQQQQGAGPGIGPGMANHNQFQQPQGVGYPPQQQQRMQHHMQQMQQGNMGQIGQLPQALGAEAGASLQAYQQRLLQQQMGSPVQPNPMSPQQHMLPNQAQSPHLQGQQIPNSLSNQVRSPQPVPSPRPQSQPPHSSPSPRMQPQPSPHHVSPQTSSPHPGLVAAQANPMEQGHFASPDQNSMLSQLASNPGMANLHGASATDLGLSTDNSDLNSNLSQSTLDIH

## CC(=O)N[C@@H](CC(C)C)C(=O)N[C@@H](CCC(N)=O)C(=O)NCC(=O)N[C@@H](CS)C(=O)N[C@@H](CCC(=O)O)C(=O)N[C@@H](CC(C)C)C(=O)N[C@@H](CC(C)C)C(=O)N[C@@H](CS)C(=O)N[C@@H](C)C(=O)N[C@@H](CC(C)C)C(=O)N[C@@H](CC(=O)O)C(=O)N[C@@H](CCC(N)=O)C(=O)N[C@H](C(=O)N[C@@H](CC(N)=O)C(N)=O)C(C)C [HIF‐1α812–826 redE816C‐R820C] (Ac-LQGCELLCALDQVN-NH2)
HIF‐1α/p300 interaction
  IC50: 9.9 µM

## CC(=O)N[C@@H](CC(C)C)C(=O)N[C@@H](CCC(N)=O)C(=O)NCC(=O)N[C@H]1CSSC[C@@H](C(=O)N[C@@H](C)C(=O)N[C@@H](CC(C)C)C(=O)N[C@@H](CC(=O)O)C(=O)N[C@@H](CCC(N)=O)C(=O)N[C@H](C(=O)N[C@@H](CC(N)=O)C(N)=O)C(C)C)NC(=O)[C@H](CC(C)C)NC(=O)[C@H](CC(C)C)NC(=O)[C@H](CCC(=O)O)NC1=O [HIF‐1α812–826 oxE816C‐R820C] (Ac-LQGCELLCALDQVN-NH2; disulfide 4-8)
HIF‐1α/p300 interaction
  IC50: > 600 µM

## Ac-LQGEELLRALDQVN-NH2 [wt‐HIF‐1α812–826, wild‐type HIF‐1α helix 3 peptide, N‐acetyl, C‐terminal amide]
HIF‐1α/p300 interaction; FITC‐Ahx‐HIF‐1α786–826 tracer (25 nM), pH 7.46
  Inhibition / tracer displacement in FA competition assay: weak inhibition and could not fully displace tracer

B1: HIF‐1α_(812–826) sE816C‐R820C (peptide, UniProt Q16665 812-826, looked up)
peptide: Ac-LLQGCELLCALDQVN
modifications: bridge 5-9; not fully specified (bridges)
notes: Made on Rink Amide MBHA resin, so probably a C-terminal amide; also called stapled peptide; dibromomaleimide stapled (s) E816C-R820C; source: synthetic peptide
p300
  IC50: 30.3 ± 5 µM
